Reference: patent US8133471B2, “CLK-peptide and SLK-peptide” (New York University, priority 2003, dated 2012)

Legend:
[1] = tested on: intact triple helical collagen type-IV; assay: Solid phase ELISA, labeled CLK-peptide binding to native collagen type-IV
Experimental: (§1) FIG. 15 CLK-Peptide Reacts with a Cryptic Epitope in Collagen Type-IV In Vitro. Reactivity of biotin-labeled CLK-Peptide was assessed by solid phase ELISA. Reactivity was monitored by incubation with HRP-labeled streptavidin. […] All data was corrected for nonspecific binding of HRP-labeled streptavidin only. Data bars represent the mean optical density (O.D.)±standard deviation from triplicate wells. Assays were repeated 2 to 3 times with similar results.
(§2) The CLK-peptide was labeled with HRP and used in solid phase ELISA to assess differential binding to either native or denatured collagen type-IV. Microtiter plates were coated with either native or denatured collagen type-IV and HRP-labeled CLK-peptide was allowed to bind. […] In contrast, CLK-Peptide readily bound to denatured collagen type-IV. […] To determine whether this cryptic epitope was also exposed within the ECM in vivo, biotin-labeled CLK-peptide was used to stain M21 human melanoma tumors growing in nude mice (results shown in FIGS. 16A and B and described in Example 15).

[2] = tested on: Metastatic B16 murine melanoma cells; assay: B16 melanoma cell adhesion to native or denatured collagen type-IV (Example 3); format: cell-based
Source text: FIG. 2 is a chart which illustrates B16 murine melanoma cell adhesion to untreated denatured collagen type-IV (NT), CLK-peptide treated denatured collagen type-IV, and SHR-peptide treated denatured collagen type-IV.
Non-tissue culture treated 48-well plates were coated with either native (triple helical) or denatured collagen type-IV. Metastatic B16 murine melanoma cells were allowed to attach to the coated wells in the presence or absence of either CLK or SHR (control) peptide. CLK-peptide blockade of B16 cell adhesion to denatured type-IV collagen exceeded 95% (FIG. 2). CLK-peptide had little effect on B16 melanoma cell adhesion to native collagen type-IV.

[3] = tested on: denatured collagen type-IV; assay: Solid phase ELISA, labeled CLK-peptide binding to denatured collagen type-IV
Experimental: as §1, §2

[4] = tested on: denatured collagen type-IV; assay: Competition ELISA, mAb HUIV26 or HUI77 binding to denatured collagen with or without CLK-peptide (Example 16); conditions: collagen coated at 10 μg/ml; 1:1 ratio
Experimental: FIG. 17 CLK-Peptide Binds to the HUI77 Cryptic Collagen Epitope. To examine the epitope bound by CLK, competition ELISAs were carried out. Microtiter wells were coated with denatured collagen type-IV (10 μg/ml), and mAb HUIV26 or HUI77 were allowed to bind the denatured collagen in the presence or absence of CLK-peptide.
ELISAs were performed to examine the binding specificity of CLK-Peptide. Denatured type-IV collagen (10 μg/ml) was coated on microtiter wells and CLK-peptide allowed to bind in the presence or absence of Mab HUI77 or Mab HUIV26 at a 1:1 ratio. HRP-labeled goat anti-mouse secondary antibodies were used to detect murine Mabs HUI77 and HUIV26, directed to distinct cryptic epitope within collagen type-IV, and the O.D. at 490 nm measured.

[5] = tested on: denatured collagen type-IV; assay: Competition ELISA, mAb HUIV26 binding to denatured collagen type-IV with or without CLK-peptide; conditions: HUIV26 1 μg/ml; CLK-peptide 100 μg/ml; 2 hours 37° C.
Experimental: FIG. 14 Inhibition of Binding of Labeled CLK-Peptide to Denatured Collagen Type-IV by mAbs HUI77. To examine the binding specificity of the synthetic CLK-Peptide, the peptide was labeled and solid phase ELISAs were performed. Denatured collagen type-IV (10 μg/ml) was coated on microtiter wells and binding of either HRP-labeled CLK-Peptide or mAbs (mAbs HUI77 or HUIV26) was measured by ELISA at a wavelength of 490 nm. […] B. MAb HUIV26 was allowed to bind the denatured collagen in the presence or absence of CLK-Peptide.
Microtiter wells were coated with denatured collagen type-IV (1 μg/ml) overnight at 4° C., and the plates blocked with 1% BSA for 1 hour at 37° C. HUIV26 was added at 1 μg/ml and allowed to bind the denatured collagen in the presence or absence of 100 μg/ml CLK-peptide for 2 hours at 37° C. Labeled goat-anti-mouse antibody was added at 1:3000 and incubation was allowed for 1 hour at 37° C. Color solution, then a stopping solution of 4N sulfuric acid, were added and binding was quantified by measuring the O.D. at 490 nm. […] Similar results were obtained over a wide range of peptide and antibody concentrations (1 to 100 μg/ml) (data not shown).

[6] = tested on: GL261 glioblastoma tumors; assay: GL261 tumors grown on chick CAMs, CLK-peptide combined with ionizing radiation; format: in vivo; conditions: CLK-peptide 50 μg/embryo + 5.0 Gy; 7-day incubation
Experimental: FIG. 25 Effects of CLK-Peptide on Anti-Tumor Activity of Ionizing Radiation In Vivo. Glioblastoma tumors grown on CAMs were treated with either CLK-Peptide, ionizing radiation, both, or left untreated as a control. Their relative sizes after incubation are shown. FIG. 26 Quantitation of the Effects of CLK-Peptide on Anti-tumor Activity of Ionizing Radiation in vivo. Glioblastoma tumors grown on CAMs were treated with either CLK-Peptide, ionizing radiation, both, or left untreated as a control. Their relative wet weights following treatment are graphed. The effects of CLK-peptide in combination with ionizing radiation on tumor growth in vivo were assessed. GL261 glioblastoma cells were seeded on the CAMs of 10-day old chick embryos. Twenty-four hours later, the embryos were injected systemically with CLK-peptide (50 μg/embryo). Twenty-four hours after CLK-peptide treatment the embryos were either untreated or irradiated with a single fraction dose of ionizing radiation (5.0 Gy). Photographs showing the relative sizes of […] given each treatment individually, the combination treatment, and not treated, are shown in FIG. 25. At the end of the 7-day incubation period the tumors (N=6 to 8 per condition) were removed and wet weights determined.

[7] = tested on: Human endothelial cells (HUVECs); assay: Endothelial cord formation in MATRIGEL; format: cell-based; conditions: 0 to 100 μg/ml, 24 hours
Experimental: FIG. 6 Effects of CLK Peptide on HUVEC Cord Formation in MATRIGEL®. MATRIGEL was added to 96-well plates and allowed to form three-dimensional gels. […] Representative photos were taken at a magnification of 100×. A. Untreated control. B. CLK 25 μg/ml. C. CLK 50 μg/ml. D. CLK 100 μg/ml. E. Control Peptide 100 μg/ml.
The role that the CLK cryptic collagen epitope plays in regulating endothelial cell morphogenesis and cord formation, processes important in angiogenesis, were investigated. MATRIGEL was diluted in M199 medium and 300 μl were added to the wells of a 48-well culture plate and allowed to polymerize. […] Endothelial morphogenesis and cord formation was monitored with an inverted microscope fitted with a 35 mm camera to document cord formation.

binding to intact triple helical collagen type-IV [1]: little if any binding
binding to denatured collagen type-IV [3]: readily bound
blocking of mAb HUI77 binding to denatured collagen [4]: significantly blocked
blocking of mAb HUIV26 binding to denatured collagen [4]: did not block
blocking of mAb HUIV26 binding to denatured collagen type-IV [5]: did not block
Substance: H-CLKQNGGNFSLG-OH [CLK-peptide, NH2-C-L-K-Q-N-G-G-N-F-S-L-G-COOH]
blockade of B16 cell adhesion to denatured type-IV collagen ([2]; wells coated with denatured collagen type-IV): exceeded 95%
effect on B16 melanoma cell adhesion to native collagen type-IV ([2]; wells coated with native (triple helical) collagen type-IV): little effect
inhibition of tumor growth (wet weights), combination therapy versus either treatment alone [6]: greater
effect on endothelial cord formation [7]: dose-dependently inhibited
